Biological target: T1, CD73 (Calu-6 cells) (Homo sapiens, UniProt P21589)
T1 construct: endogenous in cells; host or cells: Calu-6 cells
T1 sequence (P21589 27-549): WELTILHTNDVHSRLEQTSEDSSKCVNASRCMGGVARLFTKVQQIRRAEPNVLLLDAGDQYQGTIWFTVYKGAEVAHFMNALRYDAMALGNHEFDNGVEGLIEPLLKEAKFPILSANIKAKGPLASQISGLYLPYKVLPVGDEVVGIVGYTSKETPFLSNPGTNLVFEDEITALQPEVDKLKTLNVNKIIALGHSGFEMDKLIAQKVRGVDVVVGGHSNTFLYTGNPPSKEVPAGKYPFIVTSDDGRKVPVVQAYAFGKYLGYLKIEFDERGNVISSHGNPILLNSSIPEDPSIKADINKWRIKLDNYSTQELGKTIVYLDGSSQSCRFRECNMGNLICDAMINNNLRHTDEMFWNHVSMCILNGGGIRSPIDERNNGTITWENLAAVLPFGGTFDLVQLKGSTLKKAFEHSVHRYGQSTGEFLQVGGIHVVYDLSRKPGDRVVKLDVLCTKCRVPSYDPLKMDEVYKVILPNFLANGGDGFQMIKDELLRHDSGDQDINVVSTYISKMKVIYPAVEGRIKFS
Assay: Enzymatic activity detection at the cellular level (Calu-6 cells, AMP substrate, Cell-titer Glo luminescence)
Type: cell-based
Settings: enzymatic IC50 at the Calu-6 cell level, 30 min pre-incubation, 120 min at 37° C.
Protocol: The Calu-6 cells were digested and re-suspended using TM buffer (25 mM Tris, 5 mM MgCl2, pH 7.5). Calu-6 cell suspension was seeded into 96 well cell culture plate, and the number of cells per well was 2.5×10^4, adding volume of 100 μL/well. Compound solution with gradient concentration was prepared by TM buffer, and 50 μL DMSO solution with different concentration was added into each pore cell. […] Pre-incubated in a shaker at 37° C. for 30 min. Each well was added with 50 μL 800 μM AMP solution. The shaker at 37° C. for 120 min was continued to incubate, then the 96-well plates were centrifuged and 50 μL supernatant was transferred to the new 96-well plates. […] The luminescence value was read by the multi-function enzymatic reader and converted into the inhibition percentage: Inhibition percentage=(1−reading/Max)*100. The “maximum value” was DMSO control. IC50 values were obtained by curve fitting with GraphPad Prism software.

Question: C=Cc1nnc(-c2c[nH]c(=O)[nH]c2=O)cc1[C@H]1C[C@@H]1CC [Compound 1, 5-(5-((1S,2S)-2-ethylcyclopropyl)-6-vinylpyridazin-3-yl)pyrimidine-2,4(1H,3H)-dione] was tested. Which IC50 did it give?
Answer: The IC50 was 21.6 nM.

Question: C=C(C)c1nnc(-c2c[nH]c(=O)[nH]c2=O)cc1[C@H]1C[C@@H]1CC [Compound 2, 5-(5-((1S,2S)-2-ethylcyclopropyl)-6-(prop-1-en-2-yl)pyridazin-3-yl)pyrimidine-2,4(1H,3H)-dione] was tested. Which IC50 did it give?
Answer: Its IC50 is 329 nM.

Question: Which IC50 does the source give for CC[C@H]1C[C@@H]1c1cc(-c2c[nH]c(=O)[nH]c2=O)nnc1C1CC1 [Compound 3, 5-(6-cyclopropyl-5-((1S,2S)-2-ethylcyclopropyl)pyridazin-3-yl)pyrimidine-2,4(1H,3H)-dione] here?
Answer: Its IC50 is 721 nM.

Question: For C=C1CC(c2cc(-c3c[nH]c(=O)[nH]c3=O)nnc2Cl)C1 [Compound 4, 5-(6-chloro-5-(3-methylenecyclobutyl)pyridazin-3-yl)pyrimidine-2,4(1H,3H)-dione], which IC50 is on record?
Answer: The IC50 was 22.6 nM.

Question: For C=CC1CC1c1cc(-c2c[nH]c(=O)[nH]c2=O)nnc1C (stereo not shown) [Compound 6, 5-(6-methyl-5-(2-vinylcyclopropyl)pyridazin-3-yl)pyrimidine-2,4(1H,3H)-dione], which IC50 is on record?
Answer: The IC50 was 50.7 nM.

Question: C=C[C@H]1C[C@@H]1c1cc(-c2c[nH]c(=O)[nH]c2=O)nnc1C [Compound 7, 5-(6-methyl-5-((1S,2R)-2-vinylcyclopropyl)pyridazin-3-yl)pyrimidine-2,4(1H,3H)-dione] was tested. Which IC50 did it give?
Answer: Its IC50 is 21 nM.

Question: Which IC50 does the source give for C/C=C/[C@H]1C[C@@H]1c1cc(-c2c[nH]c(=O)[nH]c2=O)nnc1C [Compound 8, 5-(6-methyl-5-((1S,2R)-2-((E)-prop-1-en-1-yl)cyclopropyl)pyridazin-3-yl)pyrimidine-2,4(1H,3H)-dione] here?
Answer: The IC50 was 92.7 nM.

Question: For Cc1nnc(-c2c[nH]c(=O)[nH]c2=O)cc1[C@H]1C[C@@H]1/C=C/C1CC1 [Compound 9, 5-(5-((1S,2R)-2-((E)-2-cyclopropylvinyl)cyclopropyl)-6-methylpyridazin-3-yl)pyrimidine-2,4(1H,3H)-dione], which IC50 is on record?
Answer: The IC50 was 200 nM.

Question: For Cc1nnc(-c2c[nH]c(=O)[nH]c2=O)cc1[C@H]1C[C@@H]1/C=C/C#N [Compound 10, (E)-3-((1R,2S)-2-(6-(2,4-dioxo-1,2,3,4-tetrahydropyrimidin-5-yl)-3-methylpyridazin-4-yl)cyclopropyl)acrylonitrile], which IC50 is on record?
Answer: Its IC50 is 31 nM.

Question: With Cc1nnc(-c2c[nH]c(=O)[nH]c2=O)cc1[C@H]1C[C@@H]1C=C(F)F [Compound 11, 5-(5-((1S,2S)-2-(2,2-difluorovinyl)cyclopropyl)-6-methylpyridazin-3-yl)pyrimidine-2,4(1H,3H)-dione] as the compound, how does the IC50 read?
Answer: The IC50 was 46 nM.

Question: For Cc1nnc(-c2c[nH]c(=O)[nH]c2=O)cc1[C@H]1C[C@@H]1/C=C/c1ccccc1 [Compound 16, 5-(6-methyl-5-((1S,2R)-2-((E)-styryl)cyclopropyl)pyridazin-3-yl)pyrimidine-2,4(1H,3H)-dione], which IC50 is on record?
Answer: The IC50 was 2.3 nM.

Question: N#Cc1ccc(/C=C/[C@H]2C[C@@H]2c2cc(-c3c[nH]c(=O)[nH]c3=O)nnc2Cl)cc1 [Compound 17, 4-((E)-2-((1R,2S)-2-(3-chloro-6-(2,4-dioxo-1,2,3,4-tetrahydropyrimidin-5-yl)pyridazin-4-yl)cyclopropyl)vinyl)benzonitrile] was tested. Which IC50 did it give?
Answer: Its IC50 is 2.3 nM.

Question: For O=c1[nH]cc(-c2cc([C@H]3C[C@@H]3C#Cc3ccccc3)c(Cl)nn2)c(=O)[nH]1 [Compound 18, 5-(6-chloro-5-((1S,2S)-2-(phenylethynyl)cyclopropyl)pyridazin-3-yl)pyrimidine-2,4(1H,3H)-dione], which IC50 is on record?
Answer: Its IC50 is 5.6 nM.

Question: Which IC50 does the source give for N#Cc1cccc(C#C[C@H]2C[C@@H]2c2cc(-c3c[nH]c(=O)[nH]c3=O)nnc2Cl)c1 [Compound 19, 3-(((1S,2S)-2-(3-chloro-6-(2,4-dioxo-1,2,3,4-tetrahydropyrimidin-5-yl)pyridazin-4-yl)cvclopropyl)ethynyl)benzonitrile] here?
Answer: The IC50 was 2.99 nM.

Question: How did the IC50 turn out when COc1nnc(-c2c[nH]c(=O)[nH]c2=O)cc1[C@H]1C[C@@H]1/C=C/c1ccccc1 [Compound 20, 5-(6-methoxy-S-((1S,2R)-2-((E)-styryl)cyclopropyl)pyridazin-3-yl)pyrimidine-2,4(1H,3H)-dione] was run?
Answer: Its IC50 is 1.2 nM.

Question: Which IC50 does the source give for COc1nnc(-c2c[nH]c(=O)[nH]c2=O)cc1[C@H]1C[C@@H]1C#Cc1ccccc1 [Compound 21, 5-(6-methoxy-S-((1S,2S)-2-(phenylethynyl)cyclopropyl)pyridazin-3-yl)pyrimidine-2,4(1H,3H)-dione] here?
Answer: The IC50 was 5.5 nM.

Question: How did the IC50 turn out when Cc1nnc(-c2c[nH]c(=O)[nH]c2=O)cc1C1CC1c1ccccc1 (stereo not shown) [Compound 22, 5-(6-methyl-5-(2-phenylcyclopropyl)pyridazin-3-yl)pyrimidine-2,4(1H,3H)-dione] was run?
Answer: Its IC50 is 22.7 nM.

Question: O=c1[nH]cc(-c2cc(C3CC3c3ccccc3)c(Cl)nn2)c(=O)[nH]1 (stereo not shown) [Compound 23, 5-(6-chloro-5-(2-phenylcyclopropyl)pyridazin-3-yl)pyrimidine-2,4(1H,3H)-dione] was tested. Which IC50 did it give?
Answer: The IC50 was 1.4 nM.

Question: Cc1ccc(C2CC2c2cc(-c3c[nH]c(=O)[nH]c3=O)nnc2Cl)cc1 (stereo not drawn) [Compound 24, 5-(6-chloro-S-(2-(p-tolyl)cyclopropyl)pyridazin-3-yl)pyrimidine-2,4(1H,3H)-dione] was tested. Which IC50 did it give?
Answer: Its IC50 is 5.2 nM.

Question: N#Cc1ccc(C2CC2c2cc(-c3c[nH]c(=O)[nH]c3=O)nnc2Cl)cc1 (stereo not shown) [Compound 25, 4-(2-(3-chloro-6-(2,4-dioxo-1,2,3,4-tetrahydropyrimidin-5-yl)pyridazin-4-yl)cyclopropyl)benzonitrile] was tested. Which IC50 did it give?
Answer: The IC50 was 1.8 nM.

Question: N#Cc1cccc(C2CC2c2cc(-c3c[nH]c(=O)[nH]c3=O)nnc2Cl)c1 (stereo not shown) [Compound 26, 3-(2-(3-chloro-6-(2,4-dioxo-1,2,3,4-tetrahydropyrimidin-5-yl)pyridazin-4-yl)cyclopropyl)benzonitrile] was tested. Which IC50 did it give?
Answer: Its IC50 is 8.7 nM.

Question: O=c1[nH]cc(-c2cc(C3CC3c3ccc(F)cc3)c(Cl)nn2)c(=O)[nH]1 (stereo not shown) [Compound 27, 5-(6-chloro-5-(2-(4-fluorophenyl)cyclopropyl)pyridazin-3-yl)pyrimidine-2,4(1H,3H)-dione] was tested. Which IC50 did it give?
Answer: The IC50 was 1.8 nM.

Question: For O=c1[nH]cc(-c2cc(C3CC3c3ccc(Cl)cc3)c(Cl)nn2)c(=O)[nH]1 (stereo not shown) [Compound 28, 5-(6-chloro-5-(2-(4-chlorophenyl)cyclopropyl)pyridazin-3-yl)pyrimidine-2,4(1H,3H)-dione], which IC50 is on record?
Answer: Its IC50 is 2.7 nM.

Question: Which IC50 does the source give for COc1cccc(C2CC2c2cc(-c3c[nH]c(=O)[nH]c3=O)nnc2Cl)c1 (stereo not shown) [Compound 29, 5-(6-chloro-5-(2-(3-methoxyphenyl)cyclopropyl)pyridazin-3-yl)pyrimidine-2,4(1H,3H)-dione] here?
Answer: The IC50 was 4.1 nM.

Question: For O=c1[nH]cc(-c2cc(C3CC3c3cccc4ccccc34)c(Cl)nn2)c(=O)[nH]1 (stereo not drawn) [Compound 30, 5-(6-chloro-S-(2-(naphthalen-1yl)cyclopropyl)pyridazin-3-yl)pyrimidine-2,4(1H,3H)-dione], which IC50 is on record?
Answer: The IC50 was 60 nM.

Question: COc1nnc(-c2c[nH]c(=O)[nH]c2=O)cc1C1CC1c1ccccc1 (stereo not shown) [Compound 31, 5-(6-methoxy-5-(2-phenylcyclopropyl)pyridazin-3-yl)pyrimidine-2,4(1H,3H)-dione] was tested. Which IC50 did it give?
Answer: Its IC50 is 4.2 nM.

Question: COc1nnc(-c2c[nH]c(=O)[nH]c2=O)cc1C1CC1c1ccc(F)cc1 (stereo not shown) [Compound 32, 5-(5-(2-(4-fluorophenyl)cyclopropyl)-6-methoxypyridazin-3-yl)pyrimidine-2,4(1H,3H)-dione] was tested. Which IC50 did it give?
Answer: Its IC50 is 5.4 nM.

Question: With COc1nnc(-c2c[nH]c(=O)[nH]c2=O)cc1C1CC1c1ccc(Cl)cc1 (stereo not shown) [Compound 33, 5-(5-(2-(4-chlorophenyl)cyclopropyl)-6-methoxypyridazin-3-yl)pyrimidine-2,4(1H,3H)-dione] as the compound, how does the IC50 read?
Answer: The IC50 was 3.9 nM.

Source: US20230321100A1, “CD73 INHIBITOR AND APPLICATION THEREOF IN MEDICINE” (BETTA PHARMACEUTICALS CO., LTD, priority 2020, published 2023)
